Data published in US12653830B2, “Substituted imidazoquinoxaline compounds and uses thereof” (Impact Therapeutics (Shanghai), Inc, priority 2019, dated 2026).
Read-outs that look alike come from different tables or passages of the source.

Columns and labels:
[1] = test system: human breast cancer cell MDA-MB-468; assay: MTT proliferation assay, MDA-MB-468; type: cell-based; settings: 7 days, single agent, read-out: IC50, inhibition of proliferation of MDA-MB-468
Description: Determination of the Inhibitory Effect of the Compound of Example 2 and its Analogues on the Proliferation of Human Breast Cancer Cell MDA-MB-468 Using MTT Assay
The human breast cancer cells MDA-MB-468 were cultured in RPMI 1640 medium with 10% FBS and used at 90% confluence. The MDA-IVB-468 cells were digested with trypsinase and centrifuged at 800 rpm for 5 minutes. The supernatant was discarded and the cell pellets were resuspended with fresh medium and counted. Cells were seeded to 96-well cell culture plates with appropriate cell density and incubated overnight at 37° C., 5% CO2. […] 5 μL of solutions of each concentration was added to 120 μL of medium (diluted by 25 times) and mixed by shaking. The culture medium of cells cultured overnight was discarded and replaced with 195 μL/well of fresh medium (RPMI 1640+5% FBS) and 5 μL/well of diluted medium containing the test compound of corresponding concentrations (the final concentration of DMSO was 1%), and the culture plate was then returned to 5% CO2 incubator at 37° C. for 7 days (on the fourth day, dressing was changed once and culture was continued). On the day of experiment, culture medium was discarded and replaced with 100 μL/well of fresh serum-free DMEM medium containing MTT (0.5 mg/mL), and the culture was continued. After 4 hours, medium was discarded and replaced with 100 μL/well of DMSO, the plates were shaken for 10 minutes in darkness and the absorbance was measured at the wavelengths of 552 and 693 nm using a multi-function plate reader. Graph Pad Prism 6.0 was used to analyze the data. The inhibitory effects of compounds on cell proliferation were plotted based on cell viability vs. the logarithm of compound concentration. Cell viability %=(ODcompound−ODbackground)/(ODDMSO−ODbackground)×100.
Table 4 summarizes the inhibitory effect data (IC50) of some compounds on the proliferation of human breast cancer cell MDA-MB-468.

[2] = test system: human colon cancer cell SW620; assay: MTT proliferation assay in combination with CPT-11, SW620; type: cell-based; settings: medium containing 205 nM CPT-11, 5 days, read-out: IC50, inhibition of proliferation of SW620 combined with CPT-11
Description: Determination of the Inhibitory Effect of the Compound of Example 2 and its Analogues in Combination with CPT-11 on the Proliferation of Human Colon Cancer Cell SW620 Using MTT Assay
The human colon cancer cells SW620 were cultured in RPMI 1640 medium with 10% FBS and used at about 90% confluence for experiments. The SW620 cells were digested with trypsinase and centrifuged at 800 rpm for 5 minutes. The supernatant was discarded and the cell pellets were resuspended with fresh medium (RPMI 1640+10% FBS). The cells were seeded into 96-well cell culture plates with appropriate cell density and incubated at 37° C. overnight in a 5% CO2 incubator. […] The first concentration was 1 μM or 0.333 μM, the last concentration was DMSO negative control (0 μM). 5 μL of solutions of each concentration was added to 120 μL of medium (a 25 times dilution) and mixed by shaking. The cells were cultured overnight and the culture medium was replaced with 195 μL/well of fresh medium containing 205 nM CPT-11 and 5 μL/well of medium containing the test compound (the final concentration of DMSO was 1%). The culture plates were returned to incubator and cultured at 37° C., 5% CO2 for 5 days. At the day of experiment, medium was discarded and replaced with 100 μL of fresh serum-free DMEM medium containing MTT (0.5 mg/mL), and the culture was continued. 4 hours later, the medium was discarded and replaced with 100 μL/well of DMSO, the plate was shaken for 10 minutes in dark and the absorbance was measured at the wavelengths of 552 and 690 nm using a multi-function plate reader. Data were analyzed by Graph Pad Prism 6.0. The inhibitory effects of compounds on cell proliferation were plotted based on cell viability vs. the logarithm of compound concentration. Cell viability %=(ODcompound−ODbackground)/(ODDMSO−ODbackground)×100.
Table 3 summarizes the inhibitory effect data (IC50) of some compounds combined with CPT-11 on the proliferation of human colon cancer cell SW620.

[3] = molecular target: T1, ATM kinase (Homo sapiens, UniProt Q13315); assay: In vitro ATM kinase assay (Cisbio HTRF, p53 substrate); type: biochemical; settings: 30 μM ATP; for inhibition at 0.0001 µM: Conc. 0.1 nM
T1 construct: purchased Eurofins 14-933
Description: Determination of the Inhibitory Effect In Vitro of the Compound of Example 2 and its Analogues on ATM Using In Vitro ATM Kinase Assay
ATM enzymatic activity was measured using Cisbio's HTRF reagent in a 384-well plate (Greiner, #784075). […] The mixtures were centrifuged at 1000 rpm for 1 minute, and reacted in dark for 30 minutes at room temperature. Then, 5 μL of EDTA termination solution (250 mm) was added to terminate the reaction. After 5 μL of detection mixture (Anti-phospho-p53 (ser15)-K (Cisbio, #61P08KAE, 0.084 ng/μL) and Anti-GST-d2 (Cisbio, #61GSTDLA, 5.00 ng/μL)) was finally added to each well, the mixtures were cultured at room temperature over night, and the fluorescence values at 665 nm and 615 nm were measured on Envision 2104. The final concentration of each reagent of the experiment was as follows: 12.5 mM HEPES (pH8.0), 0.5% glycerol, 0.005% Brij-35, 0.625 mM DTT, 0.0125% BSA, 15 nM p53, 0.25 ng/μL ATM, 30 μM ATP, 2.5 mM Mg(AcO)2, 2.5 mM MnCl2, 62.5 mM EDTA, 0.021 ng/μL Anti-phospho-p53, 1.25 ng/μL Anti-GST-d2.
Relative fluorescence ratio was calculated: Ratio665 nm/615 nm−Ratiobackground, and inhibition rate %=(1−(relative fluorescence ratio of test compound well−relative fluorescence ratio of positive control well)/(relative fluorescence ratio of negative control well−relative fluorescence ratio of positive control well))×100 was calculated. Data were analyzed using GraphPad Prism6.0 and fitted using the curve equation: Y=Bottom+(Top−Bottom)/(1+10^((Log IC50−X)*HillSlope)), and IC50 values were calculated.

[4] = Homo sapiens, MDA-MB-468, 168 h
[5] = Conc. 1 nM, read-out: Inh % (inhibitory effect on ATM kinase activity)
[6] = Conc. 10 nM, read-out: Inh % (inhibitory effect on ATM kinase activity)
[7] = read-out: Inh % (inhibitory effect on ATM kinase activity)

T1 sequence (Q13315 whole entry): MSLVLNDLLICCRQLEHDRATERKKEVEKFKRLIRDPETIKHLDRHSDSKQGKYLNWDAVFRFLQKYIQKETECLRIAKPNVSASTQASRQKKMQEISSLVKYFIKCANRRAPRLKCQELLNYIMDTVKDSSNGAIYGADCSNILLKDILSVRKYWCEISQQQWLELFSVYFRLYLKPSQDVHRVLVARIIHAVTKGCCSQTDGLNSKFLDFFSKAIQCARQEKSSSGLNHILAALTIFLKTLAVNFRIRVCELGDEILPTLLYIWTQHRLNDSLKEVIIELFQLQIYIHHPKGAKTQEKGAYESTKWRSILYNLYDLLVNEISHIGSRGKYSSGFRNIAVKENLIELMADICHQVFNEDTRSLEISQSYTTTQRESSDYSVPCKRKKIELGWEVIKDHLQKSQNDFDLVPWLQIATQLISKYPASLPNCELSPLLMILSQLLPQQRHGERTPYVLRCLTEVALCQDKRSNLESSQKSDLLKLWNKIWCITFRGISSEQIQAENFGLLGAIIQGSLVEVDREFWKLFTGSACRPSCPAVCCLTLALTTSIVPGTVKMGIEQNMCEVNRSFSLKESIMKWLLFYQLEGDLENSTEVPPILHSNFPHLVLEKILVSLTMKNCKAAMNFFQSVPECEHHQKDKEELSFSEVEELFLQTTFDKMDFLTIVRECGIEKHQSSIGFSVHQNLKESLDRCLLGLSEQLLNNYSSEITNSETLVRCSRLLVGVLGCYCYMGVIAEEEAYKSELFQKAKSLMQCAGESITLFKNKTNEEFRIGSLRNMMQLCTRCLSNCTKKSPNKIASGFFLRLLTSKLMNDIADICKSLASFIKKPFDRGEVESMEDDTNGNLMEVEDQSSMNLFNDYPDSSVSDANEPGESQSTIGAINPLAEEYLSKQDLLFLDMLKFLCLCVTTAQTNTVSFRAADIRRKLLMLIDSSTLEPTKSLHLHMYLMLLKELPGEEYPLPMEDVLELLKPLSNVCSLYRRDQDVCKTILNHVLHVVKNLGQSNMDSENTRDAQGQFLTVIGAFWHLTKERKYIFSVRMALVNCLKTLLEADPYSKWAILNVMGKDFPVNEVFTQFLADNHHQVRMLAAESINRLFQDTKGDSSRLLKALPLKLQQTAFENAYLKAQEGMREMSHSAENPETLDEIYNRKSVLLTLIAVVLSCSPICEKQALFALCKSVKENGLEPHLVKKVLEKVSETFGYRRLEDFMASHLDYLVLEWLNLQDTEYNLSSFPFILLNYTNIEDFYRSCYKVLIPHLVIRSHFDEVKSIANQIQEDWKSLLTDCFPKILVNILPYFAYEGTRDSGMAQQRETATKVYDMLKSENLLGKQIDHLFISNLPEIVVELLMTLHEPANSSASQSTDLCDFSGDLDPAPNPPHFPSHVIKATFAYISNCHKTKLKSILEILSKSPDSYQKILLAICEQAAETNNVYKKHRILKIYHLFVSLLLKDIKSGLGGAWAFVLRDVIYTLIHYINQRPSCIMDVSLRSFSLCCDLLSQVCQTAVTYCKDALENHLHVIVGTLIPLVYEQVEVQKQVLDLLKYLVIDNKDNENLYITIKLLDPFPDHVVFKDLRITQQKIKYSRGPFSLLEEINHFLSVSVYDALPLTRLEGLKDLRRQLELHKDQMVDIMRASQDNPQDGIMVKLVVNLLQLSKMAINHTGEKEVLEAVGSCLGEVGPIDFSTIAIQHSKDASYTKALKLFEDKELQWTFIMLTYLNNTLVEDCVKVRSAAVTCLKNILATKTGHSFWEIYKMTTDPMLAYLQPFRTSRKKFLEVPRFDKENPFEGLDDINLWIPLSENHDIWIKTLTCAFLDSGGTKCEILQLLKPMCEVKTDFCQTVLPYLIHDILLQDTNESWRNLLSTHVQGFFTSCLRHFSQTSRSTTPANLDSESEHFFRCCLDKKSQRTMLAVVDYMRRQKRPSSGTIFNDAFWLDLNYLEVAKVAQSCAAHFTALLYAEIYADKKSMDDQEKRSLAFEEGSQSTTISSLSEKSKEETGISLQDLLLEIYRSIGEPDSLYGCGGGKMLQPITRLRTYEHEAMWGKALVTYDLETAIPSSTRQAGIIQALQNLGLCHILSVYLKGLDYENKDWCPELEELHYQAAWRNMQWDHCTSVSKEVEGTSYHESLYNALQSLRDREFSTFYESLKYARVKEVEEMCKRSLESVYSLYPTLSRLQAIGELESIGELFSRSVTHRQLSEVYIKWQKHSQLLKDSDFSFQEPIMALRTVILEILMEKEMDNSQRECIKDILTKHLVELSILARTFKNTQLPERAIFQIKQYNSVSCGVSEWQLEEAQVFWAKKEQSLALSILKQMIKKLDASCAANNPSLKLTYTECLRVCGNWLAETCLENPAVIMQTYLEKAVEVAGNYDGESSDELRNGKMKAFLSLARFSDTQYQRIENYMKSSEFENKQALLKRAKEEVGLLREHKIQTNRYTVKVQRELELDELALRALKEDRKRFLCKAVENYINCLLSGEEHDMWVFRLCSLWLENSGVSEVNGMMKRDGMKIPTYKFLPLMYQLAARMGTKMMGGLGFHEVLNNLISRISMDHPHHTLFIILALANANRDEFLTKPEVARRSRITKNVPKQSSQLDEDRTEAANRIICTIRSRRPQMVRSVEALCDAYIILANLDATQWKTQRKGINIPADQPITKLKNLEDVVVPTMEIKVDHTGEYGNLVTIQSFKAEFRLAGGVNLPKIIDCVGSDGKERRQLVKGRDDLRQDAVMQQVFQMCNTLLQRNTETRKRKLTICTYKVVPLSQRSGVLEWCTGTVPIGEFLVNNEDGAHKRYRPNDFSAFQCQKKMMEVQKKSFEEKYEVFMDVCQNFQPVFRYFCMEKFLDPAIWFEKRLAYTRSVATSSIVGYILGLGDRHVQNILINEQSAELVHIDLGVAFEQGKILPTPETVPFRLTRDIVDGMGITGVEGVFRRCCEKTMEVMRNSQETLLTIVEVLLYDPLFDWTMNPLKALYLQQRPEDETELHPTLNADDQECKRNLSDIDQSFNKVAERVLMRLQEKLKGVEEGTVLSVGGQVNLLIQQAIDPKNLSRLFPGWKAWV

Row | SMILES | IC50 [2] | IC50 [1, 4] | inhibition at 0.01 µM [3, 6] | other results
1 | CN(C)CCCOc1ccc(-c2ccc3ncc4c(c3c2)n(C2CCOCC2)c(=O)n4C)cn1 [AZD0156, reference compound] | 9.8 nM |  |  | IC50 [1]: 9.87 nM; Inh % (inhibitory effect on ATM kinase activity) ([3]; Conc. 1 nM): 90%; Inh % (inhibitory effect on ATM kinase activity) ([3]; Conc. 10 nM): 95%; Inh % (inhibitory effect on ATM kinase activity) ([3]; Conc. 100 nM): 100%
2 | CN(C)CCCOc1ccc(-c2ccc3ncc4cnc(C5CCOCC5)n4c3c2)cc1 [Example 1, N,N-dimethyl-3-(4-(1-(tetrahydro-2H-pyran-4-yl)imidazo[1,5-a]quinoxalin-8-yl)phenoxy)propan-1-amine] | 123 nM | 103 nM | 71% | inhibition at 0.001 µM [3, 5]: 25%; inhibition at 0.1 µM ([3]; Conc. 100 nM, read-out: Inh % (inhibitory effect on ATM kinase activity)): 96%
3 | Cc1nc(C2CCOCC2)n2c1cnc1ccc(-c3ccc(OCCCN(C)C)nc3)cc12 [Example 2, N,N-dimethyl-3-((5-(3-methyl-1-(tetrahydro-2H-pyran-4-yl)imidazo[1,5-a]quinoxalin-8-yl)pyridin-2-yl)oxy)propan-1-amine] | 19.2 nM | 18.8 nM | 96% | inhibition at 0.0001 µM [3, 7]: 45%; inhibition at 0.001 µM [3, 5]: 59%
4 | Cc1nc(C2CCOCC2)n2c1cnc1ccc(-c3ccc(OCCCN(C)C)cc3)cc12 [Example 3, N,N-dimethyl-3-(4-(3-methyl-1-(tetrahydro-2H-pyran-4-yl)imidazo[1,5-a]quinoxalin-8-yl)phenoxy)propan-1-amine] | 40.2 nM | 29.1 nM | 98% | 
5 | Cc1nc(C2CCOCC2)n2c1cnc1ccc(-c3ccc(OCCCN(C)C)c(F)c3)cc12 [Example 4, N,N-dimethyl-3-(2-fluoro-4-(3-methyl-1-(tetrahydro-2H-pyran-4-yl)imidazo[1,5-a]quinoxalin-8-yl)phenoxy)propan-1-amine] | 41.1 nM | 38.9 nM | 97% | 
6 | Cc1nc(C2CCOCC2)n2c1cnc1ccc(-c3ccc(OCCCN(C)C)c(C(F)(F)F)c3)cc12 [Example 5, N,N-dimethyl-3-(4-(3-methyl-1-(tetrahydro-2H-pyran-4-yl)imidazo[1,5-a]quinoxalin-8-yl)-2-(trifluoromethyl)phenoxy)propan-1-amine] | 19.5 nM | 21.9 nM | 99% | inhibition at 0.0001 µM [3, 7]: 47%; inhibition at 0.001 µM [3, 5]: 97%
7 | Cc1nc(C2CCOCC2)n2c1cnc1ccc(-c3ccc(N4CCC(N(C)C)CC4)c(F)c3)cc12 [Example 6, N,N-dimethyl-1-(2-fluoro-4-(3-methyl-1-(tetrahydro-2H-pyran-4-yl)imidazo[1,5-a]quinoxalin-8-yl)phenyl)piperidin-4-amine] | 12.6 nM | 11.6 nM | 99% | inhibition at 0.0001 µM [3, 7]: 33%; inhibition at 0.001 µM [3, 5]: 93%

Further lines, with some results ahead:

Row | IC50 [2] | IC50 [1, 4] | inhibition at 0.01 µM [3, 6] | SMILES | other results
8 | 564 nM | 419 nM |  | Cc1nc(N2C[C@@H](C)O[C@@H](C)C2)n2c1cnc1ccc(-c3ccc(OCCc4c[nH]cn4)nc3)cc12 [Example 35, (2S,6R)-4-(8-(6-(2-(1H-imidazol-4-yl)ethoxy)pyridin-3-yl)-3-methylimidazo[1,5-a]quinoxalin-1-yl)-2,6-dimethylmorpholine] | 
9 | 852 nM | 533 nM |  | CC(C)c1nc(N2C[C@@H](C)O[C@@H](C)C2)n2c1cnc1ccc(-c3ccc(OCCCN(C)C)nc3)cc12 [Example 42, 3-((5-(1-((2S,6R)-2,6-dimethylmorpholino)-3-isopropylimidazo[1,5-a]quinoxalin-8-yl)pyridin-2-yl)oxy)-N,N-dimethylpropan-1-amine] | 
10 | 20.9 nM | 18.8 nM |  | C[C@@H]1CN(c2ncc3cnc4ccc(-c5ccc(N6CCC(N(C)C)CC6)nc5)cc4n23)C[C@H](C)O1 [Example 45, 1-(5-(1-((2S,6R)-2,6-dimethylmorpholino)imidazo[1,5-a]quinoxalin-8-yl)pyridin-2-yl)-N,N-dimethylpiperidin-4-amine] | 
11 | 17.9 nM | 126 nM |  | Cc1nc(N2C[C@@H](C)O[C@@H](C)C2)n2c1cnc1ccc(-c3ccc(N(C)CCCN(C)C)nc3)cc12 [Example 47, N^1-(5-(1-((2S,6R)-2,6-dimethylmorpholino)-3-methylimidazo[1,5-a]quinoxalin-8-yl)pyridin-2-yl)-N^1,N^3,N^3-trimethylpropane-1,3-diamine] | 
12 | 5.5 nM | 6.1 nM |  | Cc1nc(N2C[C@@H](C)O[C@@H](C)C2)n2c1cnc1ccc(-c3ccc(N4CCC(N5CCC5)CC4)nc3)cc12 [Example 52, (2S,6R)-4-(8-(6-(4-(azetidin-1-yl)piperidin-1-yl)pyridin-3-yl)-3-methylimidazo[1,5-a]quinoxalin-1-yl)-2,6-dimethylmorpholine] | 
13 | > 1000 nM | 832 nM |  | Cc1nc(N2C[C@@H](C)O[C@@H](C)C2)n2c1cnc1ccc(-c3ccc(CCN4CCN(C)CC4)nc3)cc12 [Example 60, (2S,6R)-2,6-dimethyl-4-(3-methyl-8-(6-(2-(4-methylpiperazin-1-yl)ethyl)pyridin-3-yl)imidazo[1,5-a]quinoxalin-1-yl)morpholine] | 
14 | 21.7 nM | 20.8 nM |  | Cc1nc(N2C[C@@H](C)O[C@@H](C)C2)n2c1cnc1ccc(-c3ccc(OCCCN(C)C)c(F)c3)cc12 [Example 61, 3-(4-(1-((2S,6R)-2,6-dimethylmorpholino)-3-methylimidazo[1,5-a]quinoxalin-8-yl)-2-fluorophenoxy)-N,N-dimethylpropan-1-amine] | 
15 | 43 nM | 34 nM |  | Cc1nc(N2C[C@@H](C)O[C@@H](C)C2)n2c1cnc1ccc(-c3ccc(OCCCN(C)C)c(Cl)c3)cc12 [Example 62, 3-(2-chloro-4-(1-((2S,6R)-2,6-dimethylmorpholino)-3-methylimidazo[1,5-a]quinoxalin-8-yl)phenoxy)-N,N-dimethylpropan-1-amine] | 
